This note sets out measurements from PubChem BioAssay (NCI).

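The compound was tested at five concentrations on cells cultured in 96-well plates, with a 48-hour exposure period. GI50 marks 50% less growth. At the TGI there is no net growth.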 Bounds are passed on as bounds.

Among the test systems are CCRF-CEM leukemia; HT29 colon; MDA-MB-435; OVCAR-3 ovarian; RXF 393 renal; SF-295 CNS; SK-MEL-2 melanoma; U251 CNS.
Common to all, as to assay: NCI-60 cell line screen, 48 h

For the compound `CO[C@H]1/C=C/O[C@@]2(C)Oc3c(C)c(O)c4c(O)c(c(/C=N/N5C(C)CN(Cc6ccc(C#N)cc6)CC5C)c(O)c4c3C2=O)NC(=O)/C(C)=C\C=C\[C@H](C)[C@H](O)[C@@H](C)[C@@H](O)[C@@H](C)[C@H](OC(C)=O)[C@@H]1C` (stereo partly specified), the GI50 with CCRF-CEM leukemia is 2.12 µM; with HT29 colon it was 6.87 µM; in the assay on MDA-MB-435, 8.58 µM; with OVCAR-3 ovarian, 6.99 µM; with RXF 393 renal, 8.88 µM; in the assay on SF-295 CNS it was 2.88 µM. The GI50 in the assay with SK-MEL-2 melanoma was 7.92 µM; with U251 CNS, 6.04 µM. The TGI worked out at 12.3 µM with CCRF-CEM leukemia; 14.4 µM with HT29 colon; 23.5 µM with MDA-MB-435; 13.5 µM in the assay on OVCAR-3 ovarian; 19.4 µM with RXF 393 renal; 12.2 µM in the assay on SF-295 CNS. Moreover, the TGI worked out at 15.9 µM with SK-MEL-2 melanoma and 12.2 µM in the assay on U251 CNS.
With `O=C(O)c1nn(-c2ccc(Cl)cc2)c2c1C(=O)c1ccccc1C2=O`, the TGI in the assay on CCRF-CEM leukemia, in the assay with HT29 colon, with MDA-MB-435, in the assay with OVCAR-3 ovarian, in the assay with RXF 393 renal and in the assay with SF-295 CNS was more than 100 µM in each case. Besides, the TGI with SK-MEL-2 melanoma and in the assay on U251 CNS was more than 100 µM throughout.
For `COc1nc2c(c(=O)n1C)CN(c1ccccc1)C(=O)CN2C`, the GI50 in the assay on CCRF-CEM leukemia was more than 100 µM; with HT29 colon it was 60.9 µM; with MDA-MB-435, more than 100 µM; with OVCAR-3 ovarian it was 38.4 µM; with RXF 393 renal, 54.3 µM; in the assay on SF-295 CNS, 52.6 µM. For the same compound, the values for the GI50 in the assay on SK-MEL-2 melanoma and in the assay with U251 CNS were more than 100 µM and 78.9 µM, respectively. The TGI with CCRF-CEM leukemia, with HT29 colon, with MDA-MB-435, in the assay on OVCAR-3 ovarian, in the assay on RXF 393 renal and in the assay on SF-295 CNS was more than 100 µM each time. For the same compound, the TGI in the assay on SK-MEL-2 melanoma and with U251 CNS was more than 100 µM each time.
On to `C#Cc1cccc(Nc2nc(C)nc3cc(NC(=O)CCl)ccc23)c1`, for which the GI50 in the assay with CCRF-CEM leukemia was 0.638 µM; in the assay on HT29 colon, 1.06 µM; in the assay with MDA-MB-435 it was 1.49 µM; in the assay with OVCAR-3 ovarian, 2.7 µM; with RXF 393 renal, 3.28 µM; in the assay on SF-295 CNS, 3.39 µM. Moreover, the GI50 in the assay on SK-MEL-2 melanoma is 3.9 µM; in the assay with U251 CNS, 0.641 µM. Moreover, the TGI was 2.22 µM in the assay with CCRF-CEM leukemia; 4.15 µM with HT29 colon; 4.75 µM in the assay on MDA-MB-435; 6.06 µM with OVCAR-3 ovarian; 6.86 µM in the assay on RXF 393 renal; 6.86 µM with SF-295 CNS. Further, the TGI worked out at 7.9 µM in the assay with SK-MEL-2 melanoma and 1.7 µM in the assay with U251 CNS.
Consider `COc1ccc(-c2oc3ncnc(N)c3c2-c2ccc(NC(=O)Nc3cc(C(F)(F)F)ccc3F)cc2)cc1`, for which the GI50 was 0.934 µM in the assay with CCRF-CEM leukemia; 0.844 µM in the assay on HT29 colon; 0.871 µM in the assay on MDA-MB-435; 1.3 µM in the assay on OVCAR-3 ovarian; 0.473 µM in the assay on RXF 393 renal; 1.88 µM in the assay on SF-295 CNS. The GI50 is 1.01 µM in the assay on SK-MEL-2 melanoma and 0.997 µM in the assay with U251 CNS. For the same compound, the TGI in the assay with CCRF-CEM leukemia worked out at 11.8 µM; with HT29 colon it was 3.12 µM; in the assay on MDA-MB-435, 3.95 µM; in the assay with OVCAR-3 ovarian it was 4.32 µM; in the assay with RXF 393 renal, 1.15 µM; in the assay with SF-295 CNS, 7.47 µM. The TGI was 3.5 µM in the assay with SK-MEL-2 melanoma and 3.83 µM in the assay with U251 CNS.
Turning to `COc1cc(OCCCN2CCCC2)ccc1Nc1ncc(Cl)c(Nc2ccccc2P(C)(C)=O)n1`, the GI50 in the assay on CCRF-CEM leukemia was 2.09 µM; with HT29 colon, 0.521 µM; in the assay on MDA-MB-435, 1.65 µM; with OVCAR-3 ovarian, 2.75 µM; with RXF 393 renal, 0.81 µM; with SF-295 CNS, 2.7 µM. Besides, the results for the GI50 with SK-MEL-2 melanoma and with U251 CNS were 2.24 µM and 5.43 µM, respectively. Besides, the TGI in the assay on CCRF-CEM leukemia was 15.8 µM; with HT29 colon, 3.79 µM; in the assay with MDA-MB-435, more than 42.6 µM; in the assay on OVCAR-3 ovarian, 12 µM; in the assay with RXF 393 renal, 3.23 µM; with SF-295 CNS, 14.2 µM. For the same compound, the TGI is 6.21 µM in the assay on SK-MEL-2 melanoma and 19.8 µM in the assay on U251 CNS.
Turning to `N#Cc1ccc2[nH]cc(Cc3c[nH]c4ccc(C#N)cc34)c2c1`, the GI50 is 12.8 µM in the assay on CCRF-CEM leukemia; 18.4 µM in the assay on HT29 colon; 11.4 µM in the assay on MDA-MB-435; 16.7 µM in the assay with OVCAR-3 ovarian; 10.7 µM with RXF 393 renal; 8.84 µM in the assay with SF-295 CNS. Moreover, the GI50 with SK-MEL-2 melanoma was 9.63 µM; in the assay on U251 CNS, 15.7 µM. Besides, the TGI with CCRF-CEM leukemia is 39.4 µM; with HT29 colon, more than 50 µM; with MDA-MB-435, 24 µM; with OVCAR-3 ovarian, 49 µM; in the assay with RXF 393 renal, 34.9 µM; with SF-295 CNS, 22.4 µM. Also, the TGI is 21 µM with SK-MEL-2 melanoma and 48.5 µM with U251 CNS.
In the case of `COc1ccc2c(c1)/C(=C\c1c(-c3ccccc3)nc3sccn13)C(=O)N2`, the GI50 in the assay on CCRF-CEM leukemia was 5.5 µM; in the assay with HT29 colon, 8.17 µM; in the assay with MDA-MB-435, 0.04 µM; in the assay with OVCAR-3 ovarian it was 0.122 µM; in the assay on RXF 393 renal, 2.69 µM; with SF-295 CNS, 0.268 µM. Also, the GI50 is 18 µM with SK-MEL-2 melanoma and 5.88 µM with U251 CNS. Besides, the TGI was more than 100 µM with CCRF-CEM leukemia; more than 40.7 µM in the assay with HT29 colon; 0.287 µM in the assay with MDA-MB-435; 0.444 µM in the assay with OVCAR-3 ovarian; 21.4 µM in the assay with RXF 393 renal; 0.967 µM in the assay on SF-295 CNS. The results for the TGI in the assay on SK-MEL-2 melanoma and in the assay with U251 CNS were 44.5 µM and 27.9 µM, respectively.
With `O=c1cc(-c2ccccc2)oc2c(O)c(O)ccc12`, the GI50 with CCRF-CEM leukemia is 3.45 µM; with HT29 colon, 35.4 µM; in the assay with MDA-MB-435 it was 13 µM; in the assay on OVCAR-3 ovarian, 2.19 µM; in the assay with RXF 393 renal, 9.95 µM; in the assay on SF-295 CNS, 7.8 µM. In addition, the figures for the GI50 in the assay on SK-MEL-2 melanoma and with U251 CNS were 44.9 µM and 7.72 µM, respectively. Also, the TGI was more than 100 µM in the assay with CCRF-CEM leukemia; more than 100 µM in the assay on HT29 colon; more than 100 µM in the assay with MDA-MB-435; 6.18 µM in the assay with OVCAR-3 ovarian; 52.7 µM in the assay on RXF 393 renal; more than 100 µM in the assay on SF-295 CNS. For the same compound, the TGI in the assay on SK-MEL-2 melanoma and with U251 CNS was more than 100 µM in each case.
